This is an account of results in patent publication US20050175544A1, “Albuterol inhalation solution, system, kit and method for relieving symptoms of pediatric asthma” (Dey LP, priority 2001, published 2005).

The assay concerns children ages 6 to 12 with asthma. The assay is described as follows: 4-week randomized placebo-controlled trial of nebulized albuterol solution, efficacy by FEV1. Particulars: both unit doses; initial dose (Day 1) and after 4 weeks of treatment (Day 28). It is filed as in vivo.

The structures appear in SMILES notation. Counter-ions that a name gives are not always drawn.

Experimental: Patients were randomized to receive a nebulizer solution comprising either 0.63 mg/3 ml or 1.25 mg/3 ml of albuterol sulfate, or a placebo. The inhalation solution was administered via a Pari LC Plus™ nebulizer and a Pari PRONEB™ compressor. […] In this study, qualifying children ages 6 to 12 were randomized to receive 1 of the following three treatments twice daily (TD) for 4 weeks, each in 3.0 mL volume: (1) 1.25 mg albuterol sulfate inhalation solution; (2) 9.63 mg albuterol sulfate inhalation solution; or (3) placebo (saline). Each patient was provided with a personal compressor-driven PARI LC PLUS™ nebulizer, by Pari Respirator Equipment, Inc., Richmond, Va., for the duration of the study. […] The 4-week study period began with the initial dose, to be taken in the morning, administered at the study site. Pre-dose pulmonary function tests and pulmonary function tests 30 minutes after the end of nebulization and hourly thereafter for 6 hours were performed. After 11 days, patients returned for exchange of study medication and diaries and pulmonary function tests before and 30 minutes after the morning dosing. […] The safety profiles of each unit dose and placebo were determined by collecting vital signs (heart rate, blood pressure, respiration rate, and body temperature) as well as electrocardiograms. […]

`CC(C)(C)NCC(O)c1ccc(O)c(CO)c1` (stereo not drawn) [albuterol, α^1-[(tert-butylamino)methyl]-4-hydroxy-m-xylene-α,α′-diol sulfate (2:1)(salt)]: the “Improvement in FEV1 compared to placebo (area under percent change from pre-dose FEV1 versus time curve)” value was “significant improvement”.
